Data as given in patent US11976083B2, “Inhibitors of peptidylarginine deiminases” (Gilead Sciences, Inc., priority 2020, dated 2024).

What follows are molecules tested against T1, human PAD4 (Homo sapiens, UniProt Q9UM07) (assay: In vitro PAD4 BAEE biochemical assay). Conditions: BAEE substrate 3 mM, 5 nM PAD4, 2 mM calcium chloride; geometric mean of multiple experiments.
T1 construct: human PAD4 (NM_012387), A2-P663, was PCR amplified; His-SUMO (N, cleaved yes); made in house; host or cells: E. coli BL21(DE3)
T1 sequence (Q9UM07 2-663): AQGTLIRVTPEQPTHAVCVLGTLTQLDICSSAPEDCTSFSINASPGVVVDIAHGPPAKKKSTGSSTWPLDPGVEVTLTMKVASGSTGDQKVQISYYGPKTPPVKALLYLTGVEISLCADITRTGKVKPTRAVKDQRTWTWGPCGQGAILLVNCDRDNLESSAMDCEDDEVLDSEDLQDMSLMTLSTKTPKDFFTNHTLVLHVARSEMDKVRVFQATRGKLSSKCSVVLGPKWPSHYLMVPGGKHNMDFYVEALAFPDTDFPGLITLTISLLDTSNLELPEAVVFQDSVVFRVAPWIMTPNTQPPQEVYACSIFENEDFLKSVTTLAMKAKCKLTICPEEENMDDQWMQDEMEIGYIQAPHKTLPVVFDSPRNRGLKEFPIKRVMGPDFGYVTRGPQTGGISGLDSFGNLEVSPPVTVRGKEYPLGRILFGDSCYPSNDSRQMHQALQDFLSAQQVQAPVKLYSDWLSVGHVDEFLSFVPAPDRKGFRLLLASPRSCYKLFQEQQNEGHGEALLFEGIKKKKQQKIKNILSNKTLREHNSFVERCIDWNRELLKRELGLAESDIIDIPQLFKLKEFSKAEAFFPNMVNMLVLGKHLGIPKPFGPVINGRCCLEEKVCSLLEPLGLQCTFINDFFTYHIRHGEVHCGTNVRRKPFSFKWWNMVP
How it was run: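 Ammonia produced by BAEE deimination (3 mM substrate, 2 h, 25 °C) was read as fluorescent isoindole after o-phthalaldehyde/DTT derivatization, ex 405 nm/em 535 nm. Human PAD4 at 5 nM final, 2 mM calcium, pH 7.6 MOPS; compound preincubated 30 min. IC50s, normalized to BB-Cl-Amidine and DMSO controls, were geometric-mean averaged.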

Point of comparison: `COc1cc(C(=O)N2CCC[C@@H](N)C2)cc2nc(-c3cc4ccc5cc4n3CCCCCCNC(=O)c3ccccc3-5)n(C)c12` [Example 51, 17-[5-[(3~{R})-3-aminopiperidine-1-carbonyl]-7-methoxy-1-methyl-benzimidazol-2-yl]-9,16-diazatetracyclo[14.5.2.0^{2,7}.0^{19,23}] tricosa-1(22),2,4,6,17,19(23),20-heptaen-8-one], IC50 215 nM. Against it:
- COc1cc(C(=O)N2CCC[C@@H](N)C2)cc2nc(-c3cc4ccc5nc4n3CCCCCCNC(=O)c3ncccc3-5)n(C)c12 [Example 46, 17-[5-[(3~{R})-3-aminopiperidine-1-carbonyl]-7-methoxy-1-methyl-benzimidazol-2-yl]-6,9,16,22-tetrazatetracyclo[14.5.2.0^{2,7}.0^{19,23}] tricosa-1(22),2,4,6,17,19(23),20-heptaen-8-one] — within 1.5-fold, 277 nM
- COc1cc(C(=O)N2CCC[C@@H](N)C2)cc2nc(-c3cc4ccc5cc4n3CCCCCCC(=O)Nc3ccccc3-5)n(C)c12 [Example 47, 17-[5-[(3~{R})-3-aminopiperidine-1-carbonyl]-7-methoxy-1-methyl-benzimidazol-2-yl]-8,16-diazatetracyclo[14.5.2.0^{2,7}.0^{19,23}] tricosa-1(22),2,4,6,17,19(23),20-heptaen-9-one] — 2.1-fold higher, 458 nM
- COc1cc(C(=O)N2[C@H]3CC[C@@H]2[C@H](N)C3)cc2nc(-c3cc4ccc5nc4n3CCCCCCNC(=O)c3ccccc3-5)n(C)c12 [Example 48, 17-[5-[(1~{R),2~{R},4~{S})-2-amino-7-azabicyclo[2.2.1]heptane-7-carbonyl]-7-methoxy-1-methyl-benzimidazol-2-yl]-9,16,22-triazatetracyclo[14.5.2.0^{2,7}.0^{19,23}] tricosa-1(22),2,4,6,17,19(23),20-heptaen-8-one] — 2.9-fold lower, 75 nM
- COc1cc(C(=O)N2CCC[C@@H](N)C2)cc2nc(-c3cc4ccc5nc4n3CCCCCCNC(=O)c3ccccc3-5)n(C)c12 [Example 49, 17-[5-[(3~{R})-3-aminopiperidine-1-carbonyl]-7-methoxy-1-methyl-benzimidazol-2-yl]-9,16,22-triazatetracyclo[14.5.2.0^{2,7}.0^{19,23}] tricosa-1(22),2,4,6,17,19(23),20-heptaen-8-one] — 1.9-fold lower, 112 nM
- COc1cc(C(=O)N2CCC[C@@H](N)C2)cc2nc(-c3cc4ccc5nc4n3CCCCCCNc3ncccc3-5)n(C)c12 [Example 50, [(3~{R})-3-amino-1-piperidyl]-[7-methoxy-1-methyl-2-(6,8,15,21-tetrazatetracyclo[13.5.2.0^{2,7}.0^{18,22}]docosa-1(21),2,4,6,16,18(22),19-heptaen-16-yl)benzimidazol-5-yl]methanone] — 47-fold higher, 10000 nM
- COc1cc(C(=O)N2CCC[C@@H](N)C2)cc2nc(-c3cc4ccc5cc4n3CCCCCCNC(=O)c3ncccc3-5)n(C)c12 [Example 52, 17-[5-[(3~{R})-3-aminopiperidine-1-carbonyl]-7-methoxy-1-methyl-benzimidazol-2-yl]-6,9,16-triazatetracyclo[14.5.2.0^{2,7}.0^{19,23}] tricosa-1(22),2,4,6,17,19(23),20-heptaen-8-one] — 2-fold higher, 424 nM
- COc1cc(C(=O)N2CCC[C@@H](N)C2)cc2nc(-c3cc4ccc5cc4n3CCCCCCC(C)(C)C(=O)Nc3ncccc3-5)n(C)c12 [Example 53, 18-[5-[(3~{R})-3-aminopiperidine-1-carbonyl]-7-methoxy-1-methyl-benzimidazol-2-yl]-10,10-dimethyl-6,8,17-triazatetracyclo[15.5.2.0^{2,7}.0^{20,24}] tetracosa-1(23),2,4,6,18,20(24),21-heptaen-9-one] — within 1.5-fold, 283 nM
- COc1cc(C(=O)N2CCC[C@@H](N)C2)cc2nc(-c3cc4ccc5cc4n3CCCCCCC(C)(C)C(=O)Nc3ccccc3-5)n(C)c12 [Example 54, 18-[5-[(3~{R})-3-aminopiperidine-1-carbonyl]-7-methoxy-1-methyl-benzimidazol-2-yl]-10,10-dimethyl-8,17-diazatetracyclo[15.5.2.0^{2,7).0^{20,24}] tetracosa-1(23),2,4,6,18,20(24),21-heptaen-9-one] — 6.4-fold higher, 1380 nM
- COc1cc(C(=O)N2CCC[C@@H](N)C2)cc2nc(-c3cc4ccc5cc4n3CCCC3CCN(CC3)C(=O)c3ccccc3-5)n(C)c12 [Example 55, 17-[5-[(3~{R})-3-aminopiperidine-1-carbonyl]-7-methoxy-1-methyl-benzimidazol-2-yl]-9,16-diazapentacyclo[14.5.2.2^{9,12).0^{2,7}.0^ {19,23}]pentacosa-1(22),2,4,6,17,19(23),20-heptaen-8-one] — 22-fold higher, 4680 nM
- COc1cc(C(=O)N2CCC[C@@H](N)C2)cc2nc(-c3cc4ccc5nc4n3CCCCCCNC(=O)c3c-5ccnc3F)n(C)c12 [Example 56, 17-[5-[(3~{R})-3-aminopiperidine-1-carbonyl]-7-methoxy-1-methyl-benzimidazol-2-yl]-6-fluoro-5,9,16,22-tetrazatetracyclo[14.5.2.0^{2,7}.0^{19,23}] tricosa-1(22),2,4,6,17,19(23),20-heptaen-8-one] — within 1.5-fold, 193 nM
- COc1cc(C(=O)N2CCC[C@@H](N)C2)cc2nc(-c3cc4ccc5nc4n3CCCCCCNC(=O)c3cccc(C)c3-5)n(C)c12 [Example 57, 17-[5-[(3~{R})-3-aminopiperidine-1-carbonyl]-7-methoxy-1-methyl-benzimidazol-2-yl]-3-methyl-9,16,22-triazatetracyclo[14.5.2.0^{2,7}.0^{19,23}] tricosa-1(22),2,4,6,17,19(23),20-heptaen-8-one] — within 1.5-fold, 213 nM
- COc1cc(C(=O)N2CCC[C@@H](N)C2)cc2nc(-c3cc4ccc5nc4n3CCCCCC(C)(C)C(=O)N[C@@H]5C)n(C)c12 [Example 58, (10~{R})-16-[5-[(3~{R})-3-aminopiperidine-1-carbonyl]-7-methoxy-1-methyl-benzimidazol-2-yl]-7,7,10-trimethyl-1,9,18-triazatricyclo[9.5.2.0^{14,17}]octadeca-11(18),12,14(17),15-tetraen-8-one] — 2.8-fold lower, 77 nM
- COc1cc(C(=O)N[C@H]2CNC[C@@H](O)C2)cc2nc(-c3cc4ccc5nc4n3CCCCCCC(C)(C)C(=O)N[C@@H]5C)n(C)c12 [Example 59, ~{N}-[(3~{R},5~{S})-5-hydroxy-3-piperidyl]-7-methoxy-1-methyl-2-[(11~{R})-8,8,11-trimethyl-9-oxo-1,10,19-triazatricyclo[10.5.2.0^{15,18}]nonadeca-12(19),13,15(18),16-tetraen-17-yl]benzimidazole-5-carboxamide] — within 1.5-fold, 161 nM
- COc1cc(C(=O)N2CC[C@@H](OC)[C@@H](N)C2)cc2nc(-c3cc4ccc5nc4n3CCCCCCC(C)(C)C(=O)N[C@@H]5C)n(C)c12 [Example 60, (11~{R})-17-[5-[(3~{S},4~{R})-3-amino-4-methoxy-piperidine-1-carbonyl]-7-methoxy-1-methyl-benzimidazol-2-yl]-8,8,11-trimethyl-1,10,19-triazatricyclo[10.5.2.0^{15,18}]nonadeca-12(19),13,15(18),16-tetraen-9-one] — 1.8-fold lower, 118 nM
- COc1cc(C(=O)N2CC[C@@H](OC)[C@@H](N)C2)cc2nc(-c3cc4ccc5nc4n3CCCCCC(C)(C)C(=O)N[C@@H]5C)n(C)c12 [Example 61, (10~{R})-16-[5-[(3~{S},4~{R})-3-amino-4-methoxy-piperidine-1-carbonyl]-7-methoxy-1-methyl-benzimidazol-2-yl]-7,7,10-trimethyl-1,9,18-triazatricyclo[9.5.2.0^{14,17}]octadeca-11(18),12,14(17),15-tetraen-8-one] — within 1.5-fold, 231 nM
- COc1cc(C(=O)N2CC[C@@H](OC)[C@@H](N)C2)cc2nc(-c3cc4ccc5nc4n3CCCCCCC3(CC3)C(=O)N[C@@H]5C)n(C)c12 [Example 62, (11~{R})-17-[5-[(3~{S},4~{R})-3-amino-4-methoxy-piperidine-1-carbonyl]-7-methoxy-1-methyl-benzimidazol-2-yl]-11-methyl-spiro[1,10,19-triazatricyclo[10.5.2.0^{15,18}]nonadeca-12(19),13,15(18),16-tetraene-8,1′-cyclopropane]-9-one] — within 1.5-fold, 150 nM
- COc1cc(C(=O)N[C@H]2CNCC(F)(F)C2)cc2nc(-c3cc4ccc5nc4n3CCCCCCC(C)(C)C(=O)N[C@@H]5C)n(C)c12 [Example 63, ~{N}-[(3~{R})-5,5-difluoro-3-piperidyl]-7-methoxy-1-methyl-2-[(11~{R})-8,8,11-trimethyl-9-oxo-1,10,19-triazatricyclo[10.5.2.0^{15,18}]nonadeca-12(19),13,15(18),16-tetraen-17-yl]benzimidazole-5-carboxamide] — 120-fold higher, 25000 nM
- COc1cc(C(=O)N[C@H]2CNC[C@H](F)C2)cc2nc(-c3cc4ccc5nc4n3CCCCCCC(C)(C)C(=O)N[C@@H]5C)n(C)c12 [Example 64, ~{N}-[(3~{R},5~{R})-5-fluoro-3-piperidyl]-7-methoxy-1-methyl-2-[(11~{R})-8,8,11-trimethyl-9-oxo-1,10,19-triazatricyclo[10.5.2.0^{15,18}]nonadeca-12(19),13,15(18),16-tetraen-17-yl]benzimidazole-5-carboxamide] — within 1.5-fold, 315 nM
- COc1cc(C(=O)N2CC[C@@H](CO)[C@H](N)C2)cc2nc(-c3cc4ccc5nc4n3CCCCCCC(C)(C)C(=O)N[C@@H]5C)n(C)c12 [Example 66, (11˜{R})-17-[5-[(3˜{S},4˜{R})-3-amino-4-(hydroxymethyl)piperidine-1-carbonyl]-7-methoxy-1-methyl-benzimidazol-2-yl]-8,8,11-trimethyl-1,10,19-triazatricyclo[10.5.2.0^{15,18}]nonadeca-12(19),13,15(18),16-tetraen-9-one] — 5.4-fold higher, 1160 nM
